For data set [1] the following is noted: 298.15 K, 101.33 kPa, Liquid.
The nature of data set [2]: refractive index (Na D-line) (dimensionless). As to conditions: 298.15 K; 101.33 kPa; Liquid; Standard Abbe refractometry.

Experimental findings from the NIST ThermoML archive (doi:10.1021/je700119m) are described below.

The structures appear in SMILES notation. ± gives the expanded uncertainty stated by the source.

Regarding `CCO` [ethanol], in data set [1], the mass density (commonly the mass of a sample divided by its volume) is recorded as 785.1 ± 0.5 kg/m3. Besides, the refractive index (as a rule, a measure of how strongly the sample bends light) in data set [2] amounted to 1.35929 ± 0.00068.

Take `CC(C)O` [propan-2-ol]: the mass density in data set [1] (Vibrating tube method) is 781 ± 0.4 kg/m3. In data set [2], the refractive index came to 1.37496 ± 0.00068.

Regarding `CCCCn1cc[n+](C)c1.F[P-](F)(F)(F)(F)F` [1-butyl-3-methylimidazolium hexafluorophosphate], in data set [1], the mass density is given as 1367.3 ± 2.9 kg/m3. Besides, the refractive index in data set [2] worked out at 1.40937 ± 0.00078.

In the case of `CCC(C)=O` [butanone], the mass density in data set [1] is given as 799.7 ± 0.6 kg/m3. Further, the refractive index in data set [2] is 1.37618 ± 0.00068.

Consider `COS(=O)(=O)[O-].Cn1cc[n+](C)c1` [1,3-dimethylimidazolium methylsulfate], for which, in data set [1], the mass density was determined as 1327.2 ± 2.7 kg/m3. For the same compound, the refractive index in data set [2] was determined as 1.4827 ± 0.00078.
